Among the data in US20250171495A1, “MUTLI-TARGETED SERINE PROTEASE INHIBITORS FOR TREATMENT OF CANCER AND VIRAL INFECTION” (Washington University, priority 2023, published 2025) are IC50 values, retold here.

Common to all, as to format: biochemical
Assay [1] deals with T1, HGFA (Homo sapiens, UniProt Q04756).
T1 construct: purchased R&D Systems 1514-SE-010
T1 sequence (Q04756 408-655 limits assumed): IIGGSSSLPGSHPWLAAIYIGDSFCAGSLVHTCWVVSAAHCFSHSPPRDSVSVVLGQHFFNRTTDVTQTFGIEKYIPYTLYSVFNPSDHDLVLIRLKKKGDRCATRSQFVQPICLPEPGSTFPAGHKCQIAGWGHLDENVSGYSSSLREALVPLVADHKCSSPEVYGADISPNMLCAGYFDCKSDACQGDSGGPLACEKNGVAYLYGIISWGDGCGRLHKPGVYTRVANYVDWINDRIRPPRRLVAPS
T1 sequence (Q04756 373-407 partner limits assumed): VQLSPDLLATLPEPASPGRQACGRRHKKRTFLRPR
The experiment in a line: Fluorogenic kinetic enzyme inhibitor assay, HGFA.

Assay [2] deals with T2, Factor Xa (Homo sapiens, UniProt P00742).
T2 construct: TMPRSS2; Matriptase; Hepsin; HGFA; Thrombin; Factor Xa
The experiment in a line: Fluorogenic assay, Factor Xa. The settings on record: read-out: Factor Xa IC50.

In assay [3] the target is T3, matriptase (Homo sapiens, UniProt Q9Y5Y6).
T3 construct: purchased R&D Systems 3946-SEB-010
T3 sequence (Q9Y5Y6 615-855 limits assumed): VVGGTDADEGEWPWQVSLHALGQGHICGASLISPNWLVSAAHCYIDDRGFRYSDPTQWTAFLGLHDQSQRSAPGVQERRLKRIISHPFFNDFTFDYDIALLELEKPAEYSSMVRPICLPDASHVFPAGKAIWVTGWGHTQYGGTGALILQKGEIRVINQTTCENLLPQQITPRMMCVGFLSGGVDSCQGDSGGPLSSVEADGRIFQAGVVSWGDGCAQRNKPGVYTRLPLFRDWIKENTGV
The experiment in a line: Fluorogenic kinetic enzyme inhibitor assay, matriptase.

The target of assay [4] is T4, hepsin (Homo sapiens, UniProt P05981).
T4 construct: purchased R&D Systems 4776-SE-010
The experiment in a line: Fluorogenic kinetic enzyme inhibitor assay, hepsin. Conditions: read-out: Hepsin IC50.

In assay [5] the target is TMPRSS2 (Homo sapiens, UniProt O15393). The experiment in a line: Fluorogenic kinetic enzyme inhibitor assay, TMPRSS2. More on the design: purchased Cusabio Technology CSB-YP023924HU. Conditions: read-out: TMPRSS2 IC50.
The mark [6] stands for this setting: 30 min incubation, Boc-QLR-AMC at Km, read-out: HGFA IC50.
Setting [7] is: 30 min incubation, Boc-QAR-AMC at Km.

Where two headings read alike, the source gives them in different places.

Sequence of TMPRSS2 (O15393 106-492 limits assumed): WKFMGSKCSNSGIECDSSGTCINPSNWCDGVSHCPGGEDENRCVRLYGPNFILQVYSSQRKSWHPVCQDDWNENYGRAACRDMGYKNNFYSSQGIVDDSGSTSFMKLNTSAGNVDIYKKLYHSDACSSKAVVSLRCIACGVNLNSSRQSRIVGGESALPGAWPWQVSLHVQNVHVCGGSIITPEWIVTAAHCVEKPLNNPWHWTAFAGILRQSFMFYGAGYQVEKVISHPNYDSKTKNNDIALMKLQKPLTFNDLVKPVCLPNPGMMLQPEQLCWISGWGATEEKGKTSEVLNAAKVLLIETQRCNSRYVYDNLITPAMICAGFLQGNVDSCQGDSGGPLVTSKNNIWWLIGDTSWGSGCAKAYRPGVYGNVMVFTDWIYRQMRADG
T4 sequence (P05981 163-417 limits assumed): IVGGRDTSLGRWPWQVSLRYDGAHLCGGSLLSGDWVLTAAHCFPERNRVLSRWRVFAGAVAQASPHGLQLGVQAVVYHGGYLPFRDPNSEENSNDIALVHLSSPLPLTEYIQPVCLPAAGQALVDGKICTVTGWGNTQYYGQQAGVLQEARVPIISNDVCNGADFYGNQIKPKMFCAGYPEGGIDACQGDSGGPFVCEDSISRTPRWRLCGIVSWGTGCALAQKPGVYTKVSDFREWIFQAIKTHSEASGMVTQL
T4 sequence (P05981 1-162 partner limits assumed): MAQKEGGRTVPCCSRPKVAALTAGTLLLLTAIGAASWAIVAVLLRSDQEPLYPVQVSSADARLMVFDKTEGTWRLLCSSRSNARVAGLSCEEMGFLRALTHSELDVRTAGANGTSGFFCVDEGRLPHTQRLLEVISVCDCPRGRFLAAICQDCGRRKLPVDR
T2 sequence (P00742 235-488 limits assumed): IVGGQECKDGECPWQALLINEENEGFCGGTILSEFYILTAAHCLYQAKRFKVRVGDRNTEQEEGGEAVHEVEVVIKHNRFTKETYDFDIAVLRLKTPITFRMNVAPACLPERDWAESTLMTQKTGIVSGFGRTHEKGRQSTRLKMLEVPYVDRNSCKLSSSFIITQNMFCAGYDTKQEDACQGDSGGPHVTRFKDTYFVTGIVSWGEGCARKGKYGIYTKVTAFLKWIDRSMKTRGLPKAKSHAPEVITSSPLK
T2 sequence (P00742 41-179 partner limits assumed): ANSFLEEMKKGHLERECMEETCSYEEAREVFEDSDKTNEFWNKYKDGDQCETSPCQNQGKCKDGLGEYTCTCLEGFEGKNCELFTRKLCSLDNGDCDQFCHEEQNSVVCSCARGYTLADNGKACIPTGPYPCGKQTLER

Broadly, the IC50 is the concentration needed to halve the response being measured. As for `CC(=O)N[C@@H](CCC(N)=O)C(=O)N[C@@H](Cc1ccccc1)C(=O)N[C@@H](CCCNC(=N)N)C(=O)c1nc2ccccc2s1` [MM3144, N-[(S)-1-[N-(S)-1-[(1,3-benzothiazol-2-yl)carbonyl]-4-guanidinobutylcarbamoyl]-2-phenylethyl](S)-2-acetylaminoglutaramide], the IC50 in assay [1] (setting [6]) amounted to 14 nM; in assay [2], 4.5 nM.
Take `CCC(C)[C@H](NC(C)=O)C(=O)N[C@@H](CO)C(=O)N[C@@H](Cc1ccccc1)C(=O)N[C@@H](CCCNC(=N)N)C(=O)c1nc2ccccc2s1` (stereo partly drawn) [MM4009-2, N-[(S)-2-hydroxy-1-[N-(S)-1-[N-(S)-1-[(1,3-benzothiazol-2-yl)carbonyl]-4-guanidinobutylcarbamoyl]-2-phenylethylcarbamoyl]ethyl] (2S)-2-acetylamino-3-methylvaleramide]: the IC50 in assay [3] is 2.17 nM; in assay [4], 1.05 nM; in assay [1] (read-out: HGFA IC50), 126 nM; in assay [5], 0.067 nM.
Take `CCC(C)[C@H](NC(C)=O)C(=O)N[C@H](C(=O)N[C@@H](Cc1ccccc1)C(=O)N[C@@H](CCCNC(=N)N)C(=O)c1nc2ccccc2s1)C(C)O` (stereo partly drawn) [MM4028-2, N-[(1S)-2-hydroxy-1-[N-(S)-1-[N-(S)-1-[(1,3-benzothiazol-2-yl)carbonyl]-4-guanidinobutylcarbamoyl]-2-phenylethylcarbamoyl]propyl](2S)-2-acetylamino-3-methylvaleramide]: the IC50 in assay [3] came to 4.71 nM; in assay [4], 0.863 nM; in assay [1] (read-out: HGFA IC50), 182 nM; in assay [5], 0.064 nM.
In the case of `CC(=O)N[C@@H](CO)C(=O)N[C@@H](Cc1cncn1COCc1ccccc1)C(=O)N[C@@H](CC(C)C)C(=O)N[C@H](CCCNC(=N)N)C(=O)c1nc2ccccc2s1` [MM4036-1, N-[(R)-1-[(1,3-benzothiazol-2-yl)carbonyl]-4-guanidinobutyl](S)-2-[(S)-2-[(S)-2-acetylamino-3-hydroxypropionylamino]-3-{1-[(benzyloxy)methyl]-5-imidazolyl}propionylamino]-4-methylvaleramide], the 50% inhibitory concentration (IC50) in assay [3] came out at 139 nM; in assay [4], 1.47 nM; in assay [1] (read-out: HGFA IC50), 1550 nM; in assay [5] it was 102 nM.
The matching figures for `CCC(C)[C@H](NC(C)=O)C(=O)N[C@@H](CCC(=O)O)C(=O)N[C@@H](Cc1ccccc1)C(=O)N[C@@H](CCCNC(=N)N)C(=O)c1nc2ccccc2s1` (stereo partly drawn) [MM4037-2, (S)-4-[(2S)-2-acetylamino-3-methylvalerylamino]-4-[N-(S)-1-[N-(S)-1-[(1,3-benzothiazol-2-yl)carbonyl]-4-guanidinobutylcarbamoyl]-2-phenylethylcarbamoyl]butyric acid]: 2.42 nM, 0.35 nM, 276 nM and 0.109 nM.
In the case of `CC(=O)N[C@@H](Cc1c[nH]c2ccccc12)C(=O)N[C@@H](Cc1ccccc1)C(=O)N[C@@H](CCCNC(=N)N)C(=O)c1nc2ccc(C(=O)O)cc2s1` [PK-1-103, 2-[(S)-2-[(S)-2-[(S)-2-acetylamino-3-(3-indolyl)propionylamino]-3-phenylpropionylamino]-5-guanidinovaleryl]-1,3-benzothiazole-6-carboxylic acid], the IC50 in assay [3] (read-out: Matriptase IC50) turned out to be 49.1 nM; in assay [4], 2.08 nM; in assay [1] (read-out: HGFA IC50), 235 nM; in assay [5], 0.223 nM.
As for `CC(=O)N[C@@H](Cc1c[nH]c2ccccc12)C(=O)N[C@@H](CC(C)C)C(=O)N[C@@H](CCCNC(=N)N)C(=O)c1nc2ccc(C(=O)O)cc2s1` [PK-1-105, 2-[(S)-2-[(S)-2-[(S)-2-acetylamino-3-(3-indolyl)propionylamino]-4-methylvalerylamino]-5-guanidinovaleryl]-1,3-benzothiazole-6-carboxylic acid], the IC50 was found to be 144 nM in assay [3] (read-out: Matriptase IC50), 0.362 nM in assay [4], 98.3 nM in assay [1] (read-out: HGFA IC50) and 1.45 nM in assay [5].
On to `CC(=O)N[C@H]1Cc2ccc(cc2)OCCCC[C@@H](C(=O)N[C@@H](CCCNC(=N)N)C(=O)c2nc3ccccc3s2)NC(=O)[C@@H](Cc2c[nH]c3ccccc23)NC1=O` [VD4162B, N-[(S)-1-[(1,3-benzothiazol-2-yl)carbonyl]-4-guanidinobutyl]-(7S,10R,13S)-13-acetylamino-10-[(3-indolyl)methyl]-9,12-dioxo-2-oxa-8,11-diazabicyclo[13.2.2]nonadeca-1(17),15,18-triene-7-carboxamide], for which the half-inhibitory concentration (IC50) in assay [3] (30 min incubation, Boc-QAR-AMC at Km, read-out: Matriptase IC50) came to 2.88 nM; in assay [4] (setting [7]) it was 0.538 nM; in assay [1], 3.35 nM; in assay [5] (setting [7]), 4.75 nM.
For the molecule `CC(=O)N[C@H]1Cc2ccc(cc2)Oc2cccc(c2)C[C@@H](C(=O)N[C@H](CCCNC(=N)N)C(=O)c2nc3ccccc3s2)NC(=O)[C@H](CC(C)C)NC1=O` [VD5064A, N-{(R)-1-[(1,3-benzothiazol-2-yl)carbonyl]-4-guanidinobutyl}-(9S,12S,15S)-15-acetylamino-12-isobutyl-11,14-dioxo-2-oxa-10,13-diazatricyclo[15.2.2.1^3,^7]docosa-1(19),3,5,7(22),17,20-hexaene-9-carboxamide], the 50% inhibitory concentration (IC50) came to 680 nM in assay [3], 2.6 nM in assay [4], 550 nM in assay [1] (read-out: HGFA IC50) and 261 nM in assay [5].
Regarding `CC(=O)N[C@H]1Cc2ccc(cc2)Oc2ccc(cc2)C[C@@H](C(=O)N[C@H](CCCNC(=N)N)C(=O)c2nc3ccccc3s2)NC(=O)[C@H](CC(C)C)NC1=O` [VD5076A, N-[(R)-1-[(1,3-benzothiazol-2-yl)carbonyl]-4-guanidinobutyl]-(8S,11S,14S)-14-acetylamino-11-isobutyl-10,13-dioxo-2-oxa-9,12-diazatricyclo[14.2.2.2^3,^6]docosa-1(18),3,5,16,19,21-hexaene-8-carboxamide], the IC50 in assay [3] is 2370 nM; in assay [4] it was 55.3 nM; in assay [1] (read-out: HGFA IC50) it was 2900 nM; in assay [5], 489 nM.
The matching figures for `CC(=O)N[C@H]1Cc2cccc(c2)Oc2ccc(cc2)C[C@@H](C(=O)N[C@H](CCCNC(=N)N)C(=O)c2nc3ccccc3s2)NC(=O)[C@H](CC(C)C)NC1=O` [VD5123A, N-{(R)-1-[(1,3-benzothiazol-2-yl)carbonyl]-4-guanidinobutyl}-(9S,12S,15S)-9-acetylamino-12-isobutyl-10,13-dioxo-2-oxa-11,14-diazatricyclo [15.2.2.1^3,^7]docosa-1(19),3(22),4,6,17,20-hexaene-15-carboxamide]: 478 nM, 146 nM, 17300 nM and 1.78 nM.
As to `CC(=O)N[C@H]1Cc2cccc(c2)Oc2ccc(cc2)C[C@@H](C(=O)N[C@@H](CCCNC(=N)N)C(=O)c2nc3ccccc3s2)NC(=O)[C@H](CC(C)C)NC1=O` [VD5123B, N-[(S)-1-[(1,3-benzothiazol-2-yl)carbonyl]-4-guanidinobutyl]-(9S,12S,15S)-9-acetylamino-12-isobutyl-10,13-dioxo-2-oxa-11,14-diazatricyclo[15.2.2.1^3,^7] docosa-1(19),3,5,7(22), 17,20-hexaene-15-carboxamide], the IC50 is 140 nM in assay [3] (read-out: Matriptase IC50), 36.9 nM in assay [4] (setting [7]), 3980 nM in assay [1] (setting [6]) and 15.2 nM in assay [5].
For the molecule `CC(=O)N[C@@H](CO)C(=O)N[C@@H](CCC(N)=O)C(=O)N[C@@H](CC(C)C)C(=O)N[C@@H](CCCNC(=N)N)C(=O)c1nccs1` [ZFH6138, N-[(S)-3-methyl-1-[N-(S)-4-guanidino-1-[(1,3-thiazol-2-yl)carbonyl]butylcarbamoyl]butyl](S)-2-[(S)-2-acetylamino-3-hydroxypropionylamino]glutaramide], the IC50 came to 18 nM in assay [3], 0.68 nM in assay [4], 364 nM in assay [1] and 1.54 nM in assay [5].
Take `CC(=O)N[C@@H](CC(C)C)C(=O)N[C@@H](CC(C)C)C(=O)N[C@@H](CCCNC(=N)N)C(=O)c1nccs1` [ZFH6201-1, N-[(S)-4-guanidino-1-[(1,3-thiazol-2-yl)carbonyl]butyl](S)-2-[(S)-2-acetylamino-4-methylvalerylamino]-4-methylvaleramide]: the IC50 in assay [3] (read-out: Matriptase IC50) is 56 nM; in assay [4] it was 4.6 nM; in assay [1] (read-out: HGFA IC50), 506 nM; in assay [5], 44.2 nM.
